Activity calls are given as the source filed them. The calls are words filed in the database; no cut-off is given here.
Legend:
Format in all cases: functional, cell-based
L6 [1] = experiment: Induction of glucose uptake in rat L6 myoblasts after 24 hrs; details: dose 0.3125-80 µM
L6 [2] = experiment: Induction of glucose uptake in rat L6 myoblasts at 50 uM after 24 hrs
L6 [3] = experiment: Induction of glucose uptake in rat L6 myotubes after 24 to 48 hrs; details: dose 2.5-80 µM, time 24-48 hrs
HEI-OC1 = experiment: Protective activity against […] HEI-OC1 cells assessed as cell viability at 10 uM after 48 hrs by CCK8 assay

**Q.** How did the Activity (L6 [1]) turn out when `CCCCCC[C@H](C)[C@@H]1CC(=O)N[C@@H](Cc2c[nH]c3ccccc23)C(=O)N[C@@H](Cc2ccccc2)C(=O)N[C@H]([C@@H](C)CC)C(=O)O1` was run?
**A.** Dose-Dependent Effect

**Q.** And the Activity (L6 [2])?
**A.** Active

**Q.** What about the Activity (L6 [3]) of the same compound?
**A.** Dose-Dependent Effect

**Q.** And the Activity (HEI-OC1)?
**A.** Active

**Q.** For `CCCCCC[C@H](C)[C@@H]1CC(=O)N[C@@H](Cc2ccc(O)cc2)C(=O)N[C@@H](Cc2ccccc2)C(=O)N[C@H]([C@@H](C)CC)C(=O)O1`, which Activity (HEI-OC1) is on record?
**A.** Active

**Q.** For `CCCCCCC(C)[C@@H]1CC(=O)N[C@@H](Cc2ccc(O)cc2)C(=O)N[C@@H](Cc2ccc(O)cc2)C(=O)N[C@H]([C@@H](C)CC)C(=O)O1` (some centres undefined), which Activity (L6 [2]) is on record?
**A.** Active

**Q.** For `CCCCCC[C@H](C)[C@@H]1CC(=O)N[C@@H](Cc2c[nH]c3ccccc23)C(=O)N[C@@H](Cc2ccc(O)cc2)C(=O)N[C@H]([C@@H](C)CC)C(=O)O1`, which Activity (L6 [2]) is on record?
**A.** Active

**Q.** For `CCCCCC[C@H](C)[C@@H]1CC(=O)N[C@@H](Cc2c[nH]c3ccccc23)C(=O)N[C@@H](Cc2ccc(O)cc2)C(=O)N[C@H](CC(C)C)C(=O)O1`, which Activity (L6 [2]) is on record?
**A.** Active

**Q.** With `CCCCCC[C@H](C)[C@@H]1CC(=O)N[C@@H](Cc2c[nH]c3ccccc23)C(=O)N[C@@H](Cc2ccccc2)C(=O)N[C@H](CC(C)C)C(=O)O1` as the compound, how does the Activity (HEI-OC1) read?
**A.** Active
